Source: patent US5773411A, “Cyclic compounds linked by a heterocyclic ring useful as inhibitors of platelet glycoprotein IIB/IIIA” (The DuPont Merck Pharmaceutical Company, priority 1994, dated 1998)

System: agonist-induced platelet aggregation in platelet-rich plasma (PRP)
Assay: Platelet Aggregation Assay
Type: cell-based
Conditions: human PRP; agonists ADP, collagen, arachidonate, epinephrine, thrombin; compound added prior to activation of the platelets
Description: Platelet Aggregation Assay
Venous blood was obtained from the arm of a healthy human donor who was drug-free and aspirin-free for at least two weeks prior to blood collection. Blood was collected into 10 ml citrated Vacutainer tubes. The blood was centrifuged for 15 minutes at 150×g at room temperature, and platelet-rich plasma (PRP) was removed. The remaining blood was centrifuged for 15 minutes at 1500×g at room temperature, and platelet-poor plasma (PPP) was removed. Samples were assayed on a aggregometer (PAP-4 Platelet Aggregation Profiler), using PPP as the blank (100% transmittance). 200 μl of PRP was added to each micro test tube, and transmittance was set to 0%. 20 μl of various agonists (ADP, collagen, arachidonate, epinephrine, thrombin) were added to each tube, and the aggregation profiles were plotted (% transmittance versus time). The results were expressed as % inhibition of agonist-induced platelet aggregation. For the IC50 evaluation, the test compounds were added at various concentrations prior to the activation of the platelets.

Row | Compound | IC50
1 | CC(C)[C@H]1NC(=O)c2cccc(n2)CNC(=O)[C@H](CC(=O)O)NC(=O)CNC(=O)[C@H](CCCNC(=N)N)N(C)C1=O [Example 3, cyclo(6-(D-Val-NMeArg-Gly-Asp)aminomethyl-2-pyridinecarboxylate)] | 1000 to 10000 nM
2 | cyclo-(D-Val-N(Me)Arg-Gly-Asp-[2-amino]-4-thiazoleacetate) [Example 4] | < 1000 nM
3 | CC(C)[C@H]1NC(=O)C2=CC=C(CNC(=O)[C@H](CC(=O)O)NC(=O)CNC(=O)[C@H](CCCNC(=N)N)N(C)C1=O)O2 [Example 1, cyclo-(D-Val-N(Me)Arg-Gly-Asp-[5-aminomethyl]-2-furoate)] | < 1000 nM
